Measured values as given in patent US20080051381A1, “Suppression of estrus in mares by a single injection method” (priority 2006, published 2008).
Marks after values point to notes of the source that are not given here.

Tests used:
[1] = system: estrus and ovulation in mares; conditions: prior knowledge; cited from earlier work
[2] = system: estrus and ovulation in light-horse mares; test: Suppression of estrus and ovulation in mares after a single sustained release injection; assay type: in vivo, mares (equine)
Experimental: Thirty one randomly selected light-horse mares are maintained on native pasture and ad libitum hay. Verification of normal reproductive cyclicity is determined by follicular ultrasound, teasing with a vigorous stallion, and radioimmunoassay of plasma progesterone concentrations. Mares displaying estrus (i.e. the estrus mare group) with plasma progesterone levels below 1 ng/mL are followed by ultrasound until a follicle 30 mm or greater is determined. When a follicle reaches 30 mm, 2 mL of 2000 IU human chorionic gonadotropin is administered to induce ovulation. Mares in the estrus group are subsequently followed by ultrasound until ovulation and corpus luteal formation are verified. Six days after ovulation is determined, mares in this group are given a 2 mL injection of dinoprost tromethamine and randomly assigned to a treatment regime set forth in Table 1.
Mares not displaying estrus (i.e. the non-estrus mare group) with progesterone concentrations above 1 ng/mL and the presence of a corpus luteum verified by ultrasound are given 2 mL dinoprost tromethamine. Once estrus is detected by teasing with a stallion, these mares are treated as the mares assigned to the estrus mare group. […]
The mares of each of the groups in Table 1 are followed via ultrasound every other day after treatment until a follicle 25 mm or greater is detected. […]
Injection site assessments are made on days 0, 1, 3, 6, and 9 post-treatment. […] Plasma concentrations of progesterone are measured with commercially available reagents (Diagnostic Systems Laboratories, Webster, Tex.). […] Data are analyzed by the Proc Mixed procedure of SAS (SAS Institute Inc., Cary, N.C.). Single point variables are analyzed via a one way ANOVA. Data from injection site scores are analyzed for effects of treatment, time, and treatment by time interactions with repeated measures. When a significant F is detected (P<0.05), the least significant difference (LSD) test is used to determine differences between groups within times.

[3] = system: injection site swelling in mares; test: Injection site assessment (swelling score 0-3) in mares; assay type: in vivo, mares (equine); conditions: compared to controls (FIG. 1)
Experimental: Injection site assessments are made on days 0, 1, 3, 6, and 9 post-treatment. Scores are based on a subjective scale of 0-3. Zero means no swelling; one means slight diameter swelling (i.e. about 12.5 mm); 2 means moderate diameter swelling (i.e. about 12.5 to 25 mm); and 3 means significant swelling (i.e. more than 25 mm). Plasma concentrations of progesterone are measured with commercially available reagents (Diagnostic Systems Laboratories, Webster, Tex.). Intra- and interassay CV and assay sensitivities are 5%, 8%, and 0.1 ng/mL. Data are analyzed by the Proc Mixed procedure of SAS (SAS Institute Inc., Cary, N.C.). Single point variables are analyzed via a one way ANOVA. Data from injection site scores are analyzed for effects of treatment, time, and treatment by time interactions with repeated measures. When a significant F is detected (P<0.05), the least significant difference (LSD) test is used to determine differences between groups within times.

C=CC[C@]1(O)CC[C@H]2[C@@H]3CCC4=CC(=O)CCC4=C3C=C[C@@]21C [Altrenogest, 17-α-Allyl-17-β-hydroxyoestra-4,9,11-trien-3-one]
Effect on estrus and ovulation (background, in words) [1]: suppress estrus and ovulation

CC(=O)O[C@]1(C(C)=O)CC[C@H]2[C@@H]3C[C@H](C)C4=CC(=O)CC[C@]4(C)[C@H]3CC[C@@]21C [Medroxyprogesterone, Medroxyprogesterone acetate]
Effectiveness at delaying estrus and ovulation (in words) ([2]; compared to controls): not effective at delaying estrus or ovulation
Days to ovulation ([2]; relative to administration of dinoprost tromethamine and treatment, mean ± SE): 11.3 ± 2.14^a days
Days to estrus ([2]; single injection on d0 together with 2 mL dinoprost tromethamine, mean ± SE): 6.2 ± 1.38^a days
Injection site swelling / biocompatibility (in words) [3]: most biocompatible formulation
Effect on estrus and ovulation (background, in words) [1]: not to effect estrus, ovulation or pregnancy maintenance

CC(=O)[C@H]1CC[C@H]2[C@@H]3CCC4=CC(=O)CC[C@]4(C)[C@H]3CC[C@]12C [progesterone]
Effect on estrus and ovulation (background, in words) [1]: suppress estrus and ovulation
